Earlier results as cited in patent US11771704B1, “Methods of using rho kinase inhibitors to treat alzheimer's disease” (priority 2020, dated 2023).

Legend:
[1] = in vivo, 1-hydroxy metabolite; cited from earlier work
animal model = settings: in vivo; cited from earlier work
[2] = target: p38 mitogen-activated protein kinase (Homo sapiens, UniProt Q16539); settings: cited from earlier work
[3] = system: triple transgenic mouse model (APP Swedish, MAPT P301L, and PSEN1 M146V); settings: 10 mg/kg/day intraperitoneally (57 mg HED); cited from earlier work
APP/PS1 transgenic mice = settings: 5 and 10 mg/kg/day intraperitoneally (70, 140 mg HED); cited from earlier work
triple transgenic mice = settings: 10 or 12 months of age, in water at 30 mg/kg and 100 mg/kg; cited from earlier work
streptozotocin rats = settings: 5 and 10 mg/kg/day intraperitoneally (226 mg HED); cited from earlier work

Chain of p38 mitogen-activated protein kinase (Q16539 whole entry): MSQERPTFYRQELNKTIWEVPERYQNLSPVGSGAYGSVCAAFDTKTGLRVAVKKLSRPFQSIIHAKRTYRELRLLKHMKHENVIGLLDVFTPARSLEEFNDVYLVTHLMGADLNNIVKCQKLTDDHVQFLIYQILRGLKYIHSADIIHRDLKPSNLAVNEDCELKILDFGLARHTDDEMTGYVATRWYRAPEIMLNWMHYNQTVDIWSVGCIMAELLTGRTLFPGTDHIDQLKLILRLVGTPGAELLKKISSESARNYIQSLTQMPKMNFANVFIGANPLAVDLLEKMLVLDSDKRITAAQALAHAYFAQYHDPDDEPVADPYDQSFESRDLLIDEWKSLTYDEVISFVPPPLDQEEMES

O=S(=O)(c1cccc2c(O)nccc12)N1CCCNCC1 [M3, hydroxyfasudil]
half-life [1]: about 8 hours

O=c1ncn2nc(Sc3ccc(F)cc3F)ccc2c1-c1c(Cl)cccc1Cl [Neflamapimod]
efficacy in an animal model (animal model): showed efficacy | primary endpoint of improving episodic memory ([2]; Phase 2): failed | tau in the cerebrospinal fluid ([2]; Phase 2): reducing | Aβ deposition ([2]; humans): no effect

Cl.O=S(=O)(c1cccc2cnccc12)N1CCCNCC1 [fasudil, Hexahydro-1-(5-Isoquinolinesulfonyl)-1H-1,4-Diazepine Monohydrochloride Hemihydrate]
β-amyloid plaques in vivo [3]: reduce | latency distance and quadrant time in the Morris water maze (APP/PS1 transgenic mice): improved | spatial memory (triple transgenic mice): did not observe improvements | latency distance and quadrant time in the Morris water maze (streptozotocin rats): improved
